Experimental data reported in patent US20200246277A1, “Composition For Alleviating, Preventing Or Treating Premenstrual Syndrome, Containing, As Active Ingredient, Pinitol, D-Chiro-Inositol Or Analog Compound Thereof” (DY NATURAL CO., LTD., priority 2015, published 2020).
Entries after “also recorded” stand apart in the source; their conditions may differ.

System: premenstrual syndrome
Assay: Blind test with questionnaire survey: alleviating effect on premenstrual syndrome, once a day for eight weeks
Assay type: in vivo, women
Conditions: for alleviation, percentage / alleviation, the number of people / complete alleviation, percentage / complete alleviation, the number of people / no change, percentage / no change, the number of people / significant alleviation, percentage / significant alleviation, the number of people: eight weeks
Text: 1. Evaluation of Administration of Pinitol or D-Chiro-Inositol to Female Subject Pinitol and D-chiro-inositol were purchased from Biosearch Life (Camino de Purchil, 66. 18004 Granada, Spain). Selected as experiment subjects were 80 normal women of reproductive age, that is, 80 women at the age of 25-40 who had neither skipped three or more cycles of menstruation, nor been administered with a contraceptive pill, and nor received a psychiatric treatment. Of them, 40 persons were classified into four groups of 10 which were then administered respectively with a placebo free of pinitol and having no pharmaceutical effects and with pinitol at three different doses. Likewise, the remaining 40 persons were equally divided into one placebo group and three experimental groups to which D-chiro-inositol was administered at three different doses, respectively. A blind test was conducted in which the placebo and pinitol or D-chiro-inositol was administered once a day for eight weeks. Pinitol or D-chiro-inositol was administered at daily doses of 600 mg, 1,200 mg, and 2,400 mg for eight weeks. A survey was made of the experimental subjects before and after the clinical test of placebo and pinitol or D-chiro-inositol to evaluate the alleviating effect of pinitol or D-chiro-inositol on premenstrual syndrome. 2. Survey In the present disclosure, the questionnaire that experimental subjects had completed with respect to the severity of premenstrual syndrome were analyzed. The experimental subjects evaluated the placebo, pinitol, or D-chiro-inositol for a pharmacological effect on premenstrual syndrome on the basis of four grades: complete alleviation, significant alleviation, somewhat alleviation, and no change for dysmenorrhea, a period of dysmenorrhea, and coldness of hands and feet. [table]

[1] = administration group of 1,200 mg or 2,400 mg
[2] = coldness of hands and feet, 600 mg a day
[3] = coldness of hands and feet, 1,200 mg a day
[4] = coldness of hands and feet, 2,400 mg a day
[5] = period of dysmenorrhea, 600 mg a day
[6] = period of dysmenorrhea, 1,200 mg a day
[7] = period of dysmenorrhea, 2,400 mg a day

## O[C@H]1[C@H](O)[C@H](O)[C@@H](O)[C@H](O)[C@H]1O [DCI, D-chiro-inositol]
Administration group of 600 mg, across main symptoms
  share of group with somewhat or significant alleviation of the main symptoms of premenstrual syndrome: 50-60%
Administration group of 1,200 mg
  share of group with complete alleviation of the main symptoms: ≥ 50%
[1]
  share of group that answered alleviation in the main symptoms: 80-90%
  share of group that did not feel changes in the main symptoms of premenstrual syndrome: 10%
Administration group of 2,400 mg
  share of group with complete alleviation of the main symptoms: 70-80%
[2]
  alleviation, percentage: 30.0%
  alleviation, the number of people: 3 person
  complete alleviation, percentage: 0.0%
  complete alleviation, the number of people: 0 person
  no change, percentage: 50.0%
  no change, the number of people: 5 person
  significant alleviation, percentage: 20.0%
  significant alleviation, the number of people: 2 person
[3]
  alleviation, percentage: 20.0%
  alleviation, the number of people: 2 person
  complete alleviation, percentage: 50.0%
  complete alleviation, the number of people: 5 person
  no change, percentage: 10.0%
  no change, the number of people: 1 person
  significant alleviation, percentage: 20.0%
  significant alleviation, the number of people: 2 person
[4]
  alleviation, percentage: 0.0%
  alleviation, the number of people: 0 person
  complete alleviation, percentage: 80.0%
  complete alleviation, the number of people: 8 person
  no change, percentage: 10.0%
  no change, the number of people: 1 person
  significant alleviation, percentage: 10.0%
  significant alleviation, the number of people: 1 person
Daily dose of 600 mg, 1,200 mg, and 2,400 mg
  effect on the main symptoms of premenstrual syndrome (dysmenorrhea, period of dysmenorrhea, coldness of hands and feet), in words: Significant reductions; also recorded: significantly alleviating
dysmenorrhea, 600 mg a day
  alleviation, percentage: 20.0%
  alleviation, the number of people: 2 person
  complete alleviation, percentage: 0.0%
  complete alleviation, the number of people: 0 person
  no change, percentage: 40.0%
  no change, the number of people: 4 person
  significant alleviation, percentage: 40.0%
  significant alleviation, the number of people: 4 person
dysmenorrhea, 1,200 mg a day
  alleviation, percentage: 20.0%
  alleviation, the number of people: 2 person
  complete alleviation, percentage: 50.0%
  complete alleviation, the number of people: 5 person
  no change, percentage: 0.0%
  no change, the number of people: 0 person
  significant alleviation, percentage: 30.0%
  significant alleviation, the number of people: 3 person
dysmenorrhea, 2,400 mg a day
  alleviation, percentage: 0.0%
  alleviation, the number of people: 0 person
  complete alleviation, percentage: 90.0%
  complete alleviation, the number of people: 9 person
  no change, percentage: 0.0%
  no change, the number of people: 0 person
  significant alleviation, percentage: 10.0%
  significant alleviation, the number of people: 1 person
[5]
  alleviation, percentage: 20.0%
  alleviation, the number of people: 2 person
  complete alleviation, percentage: 0.0%
  complete alleviation, the number of people: 0 person
  no change, percentage: 50.0%
  no change, the number of people: 5 person
  significant alleviation, percentage: 30.0%
  significant alleviation, the number of people: 3 person
[6]
  alleviation, percentage: 10.0%
  alleviation, the number of people: 1 person
  complete alleviation, percentage: 60.0%
  complete alleviation, the number of people: 6 person
  no change, percentage: 10.0%
  no change, the number of people: 1 person
  significant alleviation, percentage: 20.0%
  significant alleviation, the number of people: 2 person
[7]
  alleviation, percentage: 0.0%
  alleviation, the number of people: 0 person
  complete alleviation, percentage: 80.0%
  complete alleviation, the number of people: 8 person
  no change, percentage: 0.0%
  no change, the number of people: 0 person
  significant alleviation, percentage: 20.0%
  significant alleviation, the number of people: 2 person
